Measurements: PubChem BioAssay AID1918938 (Molecular Pharmacology Branch, DTP, NCI, 2023)

Test system: 556581-035-R-J1-PDC complex spheroid viability
Assay: Anticancer human tumor 556581-035-R-J1-PDC patient-derived ovarian carcinoma cell line growth inhibition
Conditions: for IC50: curve of first compound; for viability, T/C: stronger effect = lower value; active = viability on the fitted dose curve at most 10% of control; inactive = the rest
Summary of the method: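 Complex spheroids of tumor cells with HUVEC and human MSCs, exposed to iadademstat combined with other agents. Each agent tested in half-log steps from near clinical Cmax (else 10 microM top), DMSO ≤0.25%.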

[1] = second compound 0.1 µM, first compound 0.00316 µM
[2] = second compound 0.1 µM, first compound 0.01 µM
[3] = second compound 0.1 µM, first compound 0.0316 µM
[4] = second compound 0.1 µM, first compound 0.1 µM
[5] = second compound 0.1 µM, first compound 0.316 µM
[6] = second compound 0.1 µM, first compound 1 µM
[7] = second compound 0.316 µM, first compound 0.00316 µM
[8] = second compound 0.316 µM, first compound 0.01 µM
[9] = second compound 0.316 µM, first compound 0.0316 µM
[10] = second compound 0.316 µM, first compound 0.1 µM
[11] = second compound 0.316 µM, first compound 0.316 µM
[12] = second compound 0.316 µM, first compound 1 µM
[13] = second compound 1 µM, first compound 0.00316 µM
[14] = second compound 1 µM, first compound 0.01 µM
[15] = second compound 1 µM, first compound 0.0316 µM
[16] = second compound 1 µM, first compound 0.1 µM
[17] = second compound 1 µM, first compound 0.316 µM
[18] = second compound 1 µM, first compound 1 µM
[19] = second compound 3.16 µM, first compound 0.00316 µM
[20] = second compound 3.16 µM, first compound 0.01 µM
[21] = second compound 3.16 µM, first compound 0.0316 µM
[22] = second compound 3.16 µM, first compound 0.1 µM
[23] = second compound 3.16 µM, first compound 0.316 µM
[24] = second compound 3.16 µM, first compound 1 µM
[25] = second compound 10 µM, first compound 0.00316 µM
[26] = second compound 10 µM, first compound 0.01 µM
[27] = second compound 10 µM, first compound 0.0316 µM
[28] = second compound 10 µM, first compound 0.1 µM
[29] = second compound 10 µM, first compound 0.316 µM
[30] = second compound 10 µM, first compound 1 µM
[31] = second compound 0.1 µM, first compound 0.00949 µM
[32] = second compound 0.1 µM, first compound 0.03 µM
[33] = second compound 0.1 µM, first compound 0.0949 µM
[34] = second compound 0.1 µM, first compound 0.3 µM
[35] = second compound 0.316 µM, first compound 0.00949 µM
[36] = second compound 0.316 µM, first compound 0.03 µM
[37] = second compound 0.316 µM, first compound 0.0949 µM
[38] = second compound 0.316 µM, first compound 0.3 µM
[39] = second compound 1 µM, first compound 0.00949 µM
[40] = second compound 1 µM, first compound 0.03 µM
[41] = second compound 1 µM, first compound 0.0949 µM
[42] = second compound 1 µM, first compound 0.3 µM
[43] = second compound 3.16 µM, first compound 0.00949 µM
[44] = second compound 3.16 µM, first compound 0.03 µM
[45] = second compound 3.16 µM, first compound 0.0949 µM
[46] = second compound 3.16 µM, first compound 0.3 µM
[47] = second compound 10 µM, first compound 0.00949 µM
[48] = second compound 10 µM, first compound 0.03 µM
[49] = second compound 10 µM, first compound 0.0949 µM
[50] = second compound 10 µM, first compound 0.3 µM
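Also: spheroids exposed to agents for seven days.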
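For viability, T/C in this document: 100% = DMSO vehicle control wells.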

CC1COCCN1c1cc(-c2ccnn2C)c2ccnc(-c3ccn[nH]3)c2n1 (stereo not given) + NC1CCC(NC2CC2c2ccccc2)CC1
11.9 nM: IC50 (second compound 10 µM)
46.2 nM: IC50 (second compound 0.1 µM)
27 nM: IC50 (second compound 0.316 µM)
inactive: viability, T/C [1] 64.5% | viability, T/C [2] 61.4% | viability, T/C [3] 55% | viability, T/C [4] 38.3% | viability, T/C [5] 36.1% | viability, T/C [6] 14.8% | viability, T/C [7] 72.9% | viability, T/C [8] 58.8% | viability, T/C [9] 46.3% | viability, T/C [10] 38.2% | viability, T/C [11] 29.8% | viability, T/C [12] 15.3% | viability, T/C [13] 61.1% | viability, T/C [14] 59.7% | viability, T/C [15] 45.6% | viability, T/C [16] 36.8% | viability, T/C [17] 36.8% | viability, T/C [18] 17.9% | viability, T/C [19] 62.5% | viability, T/C [20] 54.7% | viability, T/C [21] 44.3% | viability, T/C [22] 39.8% | viability, T/C [23] 35.8% | viability, T/C [24] 19.2% | viability, T/C [25] 50% | viability, T/C [26] 55.5% | viability, T/C [27] 44.8% | viability, T/C [28] 38% | viability, T/C [29] 30.5% | viability, T/C [30] 17.3%
21.6 nM: IC50 (second compound 3.16 µM)
25 nM: IC50 (second compound 1 µM)

CC1COCCN1c1cc(C2(S(C)(=N)=O)CC2)nc(-c2ccnc3[nH]ccc23)n1 (stereo not given) + NC1CCC(NC2CC2c2ccccc2)CC1
inactive: viability, T/C [3] 96.9% | viability, T/C [4] 90.1% | viability, T/C [5] 81.8% | viability, T/C [6] 77.5% | viability, T/C (second compound 0.1 µM, first compound 3.16 µM) 71.2% | viability, T/C (second compound 0.1 µM, first compound 10 µM) 60.3% | viability, T/C [9] 87.8% | viability, T/C [10] 90.2% | viability, T/C [11] 78.7% | viability, T/C [12] 70% | viability, T/C (second compound 0.316 µM, first compound 3.16 µM) 55.6% | viability, T/C (second compound 0.316 µM, first compound 10 µM) 53.9% | viability, T/C [15] 80% | viability, T/C [16] 88.5% | viability, T/C [17] 73.4% | viability, T/C [18] 65.3% | viability, T/C (second compound 1 µM, first compound 3.16 µM) 58.1% | viability, T/C (second compound 1 µM, first compound 10 µM) 53.8% | viability, T/C [21] 93.5% | viability, T/C [22] 77.8% | viability, T/C [23] 79.4% | viability, T/C [24] 67.2% | viability, T/C (second compound 3.16 µM, first compound 3.16 µM) 55.8% | viability, T/C (second compound 3.16 µM, first compound 10 µM) 60.5% | viability, T/C [27] 67.5% | viability, T/C [28] 73.5% | viability, T/C [29] 69% | viability, T/C [30] 66.1% | viability, T/C (second compound 10 µM, first compound 3.16 µM) 48% | viability, T/C (second compound 10 µM, first compound 10 µM) 49.3%
6320 nM: IC50 (second compound 10 µM)
> 10000 nM: IC50 (second compound 0.1 µM) | IC50 (second compound 0.316 µM) | IC50 (second compound 1 µM) | IC50 (second compound 3.16 µM)

CCN(c1cc(-c2ccc(CN3CCOCC3)cc2)cc(C(=O)NCc2c(C)cc(C)[nH]c2=O)c1C)C1CCOCC1 + NC1CCC(NC2CC2c2ccccc2)CC1
1690 nM: IC50 (second compound 0.1 µM)
1620 nM: IC50 (second compound 10 µM)
> 3000 nM: IC50 (second compound 0.316 µM) | IC50 (second compound 3.16 µM)
inactive: viability, T/C [31] 89.1% | viability, T/C [32] 97% | viability, T/C [33] 100% | viability, T/C [34] 81.3% | viability, T/C (second compound 0.1 µM, first compound 0.949 µM) 59.1% | viability, T/C (second compound 0.1 µM, first compound 3 µM) 41.7% | viability, T/C [35] 84.5% | viability, T/C [36] 91.7% | viability, T/C [37] 93.9% | viability, T/C [38] 85.6% | viability, T/C (second compound 0.316 µM, first compound 0.949 µM) 55% | viability, T/C (second compound 0.316 µM, first compound 3 µM) 50.6% | viability, T/C [39] 90.7% | viability, T/C [40] 93% | viability, T/C [41] 88.5% | viability, T/C [42] 77.3% | viability, T/C (second compound 1 µM, first compound 0.949 µM) 57.1% | viability, T/C (second compound 1 µM, first compound 3 µM) 47.7% | viability, T/C [43] 91.1% | viability, T/C [44] 100% | viability, T/C [45] 76.1% | viability, T/C [46] 69.8% | viability, T/C (second compound 3.16 µM, first compound 0.949 µM) 60.1% | viability, T/C (second compound 3.16 µM, first compound 3 µM) 49.5% | viability, T/C [47] 82.8% | viability, T/C [48] 88.3% | viability, T/C [49] 76.5% | viability, T/C [50] 70.6% | viability, T/C (second compound 10 µM, first compound 0.949 µM) 54% | viability, T/C (second compound 10 µM, first compound 3 µM) 44.9%
2270 nM: IC50 (second compound 1 µM)

Nc1ncn(C2CC(O)C(CO)S2)c(=O)n1 (stereo not given) + NC1CCC(NC2CC2c2ccccc2)CC1
76.4 nM: IC50 (second compound 10 µM)
85.2 nM: IC50 (second compound 3.16 µM)
88.3 nM: IC50 (second compound 0.1 µM)
inactive: viability, T/C (second compound 0.1 µM, first compound 0.000949 µM) 102% | viability, T/C (second compound 0.1 µM, first compound 0.003 µM) 93% | viability, T/C [31] 99.5% | viability, T/C [32] 69.4% | viability, T/C [33] 52.4% | viability, T/C [34] 41.5% | viability, T/C (second compound 0.316 µM, first compound 0.000949 µM) 91.5% | viability, T/C (second compound 0.316 µM, first compound 0.003 µM) 94.8% | viability, T/C [35] 83.7% | viability, T/C [36] 73% | viability, T/C [37] 49.9% | viability, T/C [38] 36.6% | viability, T/C (second compound 1 µM, first compound 0.000949 µM) 91.2% | viability, T/C (second compound 1 µM, first compound 0.003 µM) 93.3% | viability, T/C [39] 79.6% | viability, T/C [40] 67% | viability, T/C [41] 49.5% | viability, T/C [42] 39% | viability, T/C (second compound 3.16 µM, first compound 0.000949 µM) 96% | viability, T/C (second compound 3.16 µM, first compound 0.003 µM) 90% | viability, T/C [43] 94.6% | viability, T/C [44] 67.8% | viability, T/C [45] 51.1% | viability, T/C [46] 43.8% | viability, T/C (second compound 10 µM, first compound 0.000949 µM) 88.5% | viability, T/C (second compound 10 µM, first compound 0.003 µM) 83.2% | viability, T/C [47] 71.9% | viability, T/C [48] 61.1% | viability, T/C [49] 46% | viability, T/C [50] 42.1%
98.8 nM: IC50 (second compound 0.316 µM)
91.2 nM: IC50 (second compound 1 µM)

O=C(C=Cn1cnc(-c2cc(C(F)(F)F)cc(C(F)(F)F)c2)n1)NNc1cnccn1 + NC1CCC(NC2CC2c2ccccc2)CC1
138 nM: IC50 (second compound 0.316 µM)
inactive: viability, T/C [1] 75.4% | viability, T/C [2] 78.2% | viability, T/C [3] 78.6% | viability, T/C [4] 59.9% | viability, T/C [5] 44.8% | viability, T/C [6] 24.6% | viability, T/C [7] 81.8% | viability, T/C [8] 86.2% | viability, T/C [9] 78.8% | viability, T/C [10] 49% | viability, T/C [11] 44.1% | viability, T/C [12] 25.2% | viability, T/C [13] 76% | viability, T/C [14] 74.7% | viability, T/C [15] 77% | viability, T/C [16] 68.2% | viability, T/C [17] 48.6% | viability, T/C [18] 20.1% | viability, T/C [19] 75.8% | viability, T/C [20] 86.9% | viability, T/C [21] 75.5% | viability, T/C [22] 67.2% | viability, T/C [23] 46.2% | viability, T/C [24] 25.3% | viability, T/C [25] 67.2% | viability, T/C [26] 71.7% | viability, T/C [27] 66.6% | viability, T/C [28] 61.8% | viability, T/C [29] 53.5% | viability, T/C [30] 17.3%
214 nM: IC50 (second compound 0.1 µM)
289 nM: IC50 (second compound 1 µM)
340 nM: IC50 (second compound 10 µM)
254 nM: IC50 (second compound 3.16 µM)
